{"source": "paper PMC8228819", "about": "“Comparison of a Short Linear Antimicrobial Peptide with Its Disulfide-Cyclized and Cyclotide-Grafted Variants against Clinically Relevant Pathogens” (Microorganisms, 2021)", "key": {"[1]": {"test_system": "Staphylococcus aureus, epidemic methicillin-resistant EMRSA-15", "type": "cell-based", "details": "for MIC: single measurement (asterisk)", "description": "(§1) The following strains were used in this study: Escherichia coli, ATCC 25922, Staphylococcus aureus, epidemic methicillin-resistant EMRSA-15, Klebsiella pneumoniae, clinical isolate from St George’s, University of London (SGUL, London, UK), Acinetobacter baumannii, clinical isolate from SGUL, Pseudomonas aeruginosa, PA01 wildtype strain, and Enterococcus faecalis, vancomycin-resistant ATCC 51299.\n(§2) The minimal inhibitory concentration (MIC) was determined in a microdilution assay using Mueller–Hinton (MH) or Brain Heart Infusion Broth (BHI) broth following a previously published protocol. Briefly, a twofold serial dilution of the antibiotics and peptides were prepared and added to a bacteria solution, resulting in 2–5 10^5 CFU/mL. The microtiter plates (polypropylene, Corning, Corning, NY, USA) were incubated for 18 h at 37 °C and MICs were taken visually. Based on our experience with proline rich peptides, their low activity in Mueller–Hinton broth, and their strong activity in diluted broth, we decided to also measure the activity of the peptide set in a 1/5 dilution of the broth. MICs in the presence of serum were established using human serum (Zen-Bio, Durham, NC, USA) and heat-inactivated serum (Sigma-Aldrich, St. Louis, MO, USA). A total of 20% (v/v) of each human serum was mixed with bacterial solution and added to predetermined concentrations of antibiotics and peptides, resulting in a final 10% (v/v) concentration of serum and 2–5 × 10^5 bacteria."}, "[2]": {"test_system": "Escherichia coli, ATCC 25922", "type": "cell-based", "description": "as §1, §2"}, "[3]": {"test_system": "Acinetobacter baumannii, clinical isolate from SGUL", "type": "cell-based", "description": "as §1, §2"}, "[4]": {"test_system": "Klebsiella pneumoniae, clinical isolate from St George's, University of London", "type": "cell-based", "description": "as §1, §2"}, "[5]": {"test_system": "Enterococcus faecalis, vancomycin-resistant ATCC 51299", "type": "cell-based", "description": "as §1, §2"}, "[6]": {"test_system": "Pseudomonas aeruginosa, PA01 wildtype strain", "type": "cell-based", "description": "as §1, §2"}, "[7]": {"test_system": "ESKAPE pathogens (E. faecalis, S. aureus, K. pneumoniae, A. baumannii, P. aeruginosa, E. coli)", "test": "MIC summary over the ESKAPE panel", "type": "cell-based", "description": "as §1, §2"}, "E. coli (ATCC 25922)": {"test_system": "E. coli (ATCC 25922)", "test": "Time kill assay", "type": "cell-based, Escherichia coli", "details": "1/5 (20%) MH broth, 3 times the MIC, 1 × 10^6 CFU/mL, 37 °C, 10-1440 min, three experiments", "description": "Overnight culture of E. coli (ATCC 25922) was diluted for approximately two hours to achieve logarithmic phase. The logarithmic phase inoculum was then adjusted to 1 × 10^6 CFU/mL in 20% MH broth. Within a 1.5 mL microfuge tube (STARLAB (UK) Limited, Milton Keynes, UK), the peptides were added to the inoculum at a concentration that was threefold the MIC against E coli. The tubes were placed in a shaking incubator (225 rpm) at 37 °C. At predetermined time points between 0 and 24 h: 10, 20, 40, 60, 120, 240, and 1440 min for the peptides, and for the untreated control: 0, 60, 120, 240, and 1080 min, 100 µl samples were taken out. Furthermore, a 1 in 10 dilution series using sterile 10 mM Tris buffer (pH 7.5) was performed using the removed sample, then 5 × 5 µL were spotted for each dilution onto MH agar plates and incubated at 37 °C. The next day, the colonies were counted and the colony forming units, CFU/mL for each time point, were determined."}, "pH stability": {"test": "pH stability", "type": "physicochemical", "details": "20 μM, pH 1.2 and 7.5, 24 h, UPLC", "description": "(§3) Serum stability assays were performed in 100% human serum (Sigma-Aldrich, St. Louis MO, USA, human male AB plasma). Serum was centrifuged to remove lipids and incubated with the peptides at 100 μM for 0, 0.5, 1, 3, 6, and 24 h at 37 °C. Serum proteins were precipitated by adding 3 μL of TFA to 40 μL of peptide – serum sample (final TFA 7%). The remaining supernatant was diluted with 50:50 solvent A/B. The amount of peptide remaining (%) was quantified by UPLC-MS analysis. For pH stability experiments, peptides were incubated at a concentration of 20 μM at pH 1.2 and 7.5 for 24 h, and stability was monitored by UPLC analysis."}, "Serum stability assay": {"test": "Serum stability assay", "type": "in vitro ADME, human", "details": "100% human serum", "description": "as §3"}, "[8]": {"details": "ratio of MICs (fold loss of activity in serum)"}}, "note": "Like-named read-outs stand apart in the source and are kept apart here. Bridge positions count the residues as written; N and C are the ends. Peptide text beside a SMILES is read from it.", "data": [{"smiles": "CC[C@H](C)[C@H](NC(=O)CN)C(=O)NCC(=O)N[C@@H](C)C(=O)N[C@H](C(=O)N[C@@H](CC(C)C)C(=O)N[C@@H](CCCCN)C(=O)N[C@H](C(=O)N[C@@H](CC(C)C)C(=O)N[C@H](C(=O)N[C@H](C(=O)NCC(=O)N[C@@H](CC(C)C)C(=O)N1CCC[C@H]1C(=O)N[C@@H](C)C(=O)N[C@@H](CC(C)C)C(=O)N[C@H](C(=O)N[C@@H](CO)C(=O)N[C@@H](Cc1c[nH]c2ccccc12)C(=O)N[C@H](C(=O)N[C@@H](CCCCN)C(=O)N[C@@H](CCCNC(=N)N)C(=O)N[C@@H](CCCCN)C(=O)N[C@@H](CCCNC(=N)N)C(=O)N[C@@H](CCC(N)=O)C(=O)N[C@@H](CCC(N)=O)C(N)=O)[C@@H](C)CC)[C@@H](C)CC)[C@@H](C)O)[C@@H](C)O)C(C)C)C(C)C", "note": "[Melittin, reference compound]", "values": [{"measurement": "MIC", "setting": "[1]; 1/5 MH + 10% heat inactivated human serum", "result": 1.4, "unit": "µM"}, {"measurement": "MIC", "setting": "[1]; 1/5 MH + 10% human serum", "result": 1.4, "unit": "µM"}, {"measurement": "MIC", "setting": "[1]; 1/5 MH", "result": 0.7, "unit": "µM"}, {"measurement": "MIC", "setting": "[1]; MH", "result": 4, "unit": "µM"}]}, {"smiles": "CC[C@H](C)[C@@H]1NC(=O)[C@@H]2CSSC[C@@H]3NC(=O)[C@H](Cc4c[nH]c5ccccc45)NC(=O)[C@H]([C@@H](C)CC)NC(=O)[C@H]([C@@H](C)CC)NC(=O)[C@H](Cc4c[nH]c5ccccc45)NC(=O)[C@H](CCCNC(=N)N)NC(=O)[C@H](C(C)C)NC(=O)[C@H](CCCNC(=N)N)NC(=O)[C@H](CCCNC(=N)N)NC(=O)[C@H](CCCCN)NC(=O)[C@@H]4CSSC[C@H](NC(=O)[C@H](CC(=O)O)NC(=O)[C@H](CO)NC(=O)[C@H](CC(=O)O)NC(=O)[C@H](CCCNC(=N)N)NC(=O)[C@H](CCCNC(=N)N)NC(=O)[C@H](CSSC[C@H](NC1=O)C(=O)N[C@@H](CCCNC(=N)N)C(=O)NCC(=O)N[C@@H](CC(N)=O)C(=O)NCC(=O)N[C@@H](Cc1ccc(O)cc1)C(=O)N4)NC(=O)[C@H](CCCCN)NC(=O)[C@H](CCCCN)NC(=O)[C@H](CC(C)C)NC(=O)[C@H]([C@@H](C)CC)NC(=O)[C@H](CCCCN)NC(=O)[C@@H]1CCCN1C3=O)C(=O)N1CCC[C@H]1C(=O)NCC(=O)N[C@@H](C)C(=O)N2", "note": "[[L6-optP7]Mco] (cyclo(ACICRGNGYCKRRVRWIIWCPKILKKCRRDSDCPG); disulfide 2-20, 4-27, 10-33)", "values": [{"measurement": "Ratio of MIC of cyclized peptide version over MIC of the linear peptide optP7", "setting": "[2]; 1/5 MH + 10% human serum", "result": 18.8}, {"measurement": "Improvement of activity when diluting the broth", "setting": "[2]; 1/5 MH versus MH", "result": 31, "unit": "fold"}, {"measurement": "Ratio of MIC of cyclized peptide version over MIC of the linear peptide optP7", "setting": "[2]; 1/5 MH, average used for an MIC range", "result": 3.3}, {"measurement": "Ratio of MIC of cyclized peptide version over MIC of the linear peptide optP7", "setting": "[2]; MH", "result": 77.5}, {"measurement": "Ratio 1/5 MH + 10% serum/ 1/5MH", "setting": "[2]; [8]", "result": 7.5}, {"measurement": "Ratio of MIC of cyclized peptide version over MIC of the linear peptide optP7", "setting": "[3]; 1/5 MH", "result": 5}, {"measurement": "Ratio of MIC of cyclized peptide version over MIC of the linear peptide optP7", "setting": "[3]; 1/5 MH + 10% human serum", "result": 10.3}, {"measurement": "Improvement of activity when diluting the broth", "setting": "[3]; 1/5 MH versus MH", "result": 15.5, "unit": "fold"}, {"measurement": "Ratio of MIC of cyclized peptide version over MIC of the linear peptide optP7", "setting": "[3]; MH", "result": 41.3}, {"measurement": "Ratio 1/5 MH + 10% serum/ 1/5MH", "setting": "[3]; ratio of MICs", "result": 7.75}, {"measurement": "Ratio of MIC of cyclized peptide version over MIC of the linear peptide optP7", "setting": "[4]; 1/5 MH", "result": 20.7}, {"measurement": "Improvement of activity when diluting the broth", "setting": "[4]; 1/5 MH versus MH", "result": 2, "unit": "fold"}, {"measurement": "Ratio of MIC of cyclized peptide version over MIC of the linear peptide optP7", "setting": "[4]; MH", "result": 41.3}, {"measurement": "Ratio 1/5 MH + 10% serum/ 1/5MH", "setting": "[1]; ratio of MICs", "result": ">7.8"}, {"measurement": "Ratio of MIC of cyclized peptide version over MIC of the linear peptide optP7", "setting": "[5]; 1/5 BHI", "result": 18.8}, {"measurement": "Ratio of MIC of cyclized peptide version over MIC of the linear peptide optP7", "setting": "[5]; 1/5 BHI + 10% human serum", "result": 2.6}, {"measurement": "Ratio 1/5 BHI + 10% serum/ 1/5BHI", "setting": "[5]; ratio of MICs", "result": 4.1}, {"measurement": "Ratio of MIC of cyclized peptide version over MIC of the linear peptide optP7", "setting": "[6]; 1/5 MH", "result": 10.0}, {"measurement": "Ratio of MIC of cyclized peptide version over MIC of the linear peptide optP7", "setting": "[6]; 1/5 MH + 10% human serum", "result": 1.3}, {"measurement": "Improvement of activity when diluting the broth", "setting": "[6]; 1/5 MH versus MH, Table 2 data", "result": 7.8, "unit": "fold"}, {"measurement": "Improvement of activity in diluted media", "setting": "[6]; 1/5 MH versus MH, fractions of Table 1", "result": 7.8, "unit": "fold"}, {"measurement": "Ratio of MIC of cyclized peptide version over MIC of the linear peptide optP7", "setting": "[6]; MH", "result": 20.6}, {"measurement": "Ratio 1/5 MH + 10% serum/ 1/5MH", "setting": "[6]; [8]", "result": 1}, {"measurement": "Average activity decrease, lower than for c-opt7", "setting": "[7]", "result": 1.6, "unit": "fold"}, {"measurement": "Average activity decrease factor compared to linear optP7", "setting": "[7]; all conditions of Table 3", "result": 15.5, "unit": "fold"}, {"measurement": "Antimicrobial activity in broth (in words)", "setting": "[7]; undiluted broth", "result": "medium to weak"}, {"measurement": "Kinetics of killing", "setting": "E. coli (ATCC 25922)", "result": "drastically slower acting"}, {"measurement": "pH stability", "setting": "pH stability", "result": "minor signs of degradation after 24 h at low pH"}, {"measurement": "Increase in stability against degradation in 100% human serum compared to the linear variant", "setting": "Serum stability assay", "result": 33, "unit": "fold"}, {"measurement": "remaining at 24 h, 100 μM", "setting": "Serum stability assay; male, 100% human serum (human male AB plasma), 100 μM, 37 °C, 24 h, UPLC-MS, read-out: Peptide still present after 24 h in human serum", "result": "~30", "unit": "%"}]}]}
